Details of data set [1]: method as in PMID 25922266. As to conditions: rat plasma; cited from earlier work.
Data set [2] relates to epimastigote forms of T. cruzi, Y strain. The data set is described as follows: Trypanocidal activity on epimastigote forms (growth inhibition, Neubauer chamber count). The format is cell-based, Trypanosoma cruzi. The following applies: for IC50: Trypanosoma cruzi; for Selectivity Index (SI) Epimastigote: ratio CC50 (LLC-MK2) / IC50 epimastigote. The procedure:
(§1) Initially, the prepared esters were submitted to in vitro tests using the microdilution technique in 96-well plates to evaluate the trypanocidal activity against the epimastigote evolutionary form at different concentrations (200–3.12 μg/mL). Then, the compounds with the best activity were tested against the trypomastigote form of T. cruzi. In both assays, IC50 values were calculated; a compound is considered to have trypanocidal activity when IC50 <40 μM [21]. The results are expressed in Table 1.
Initially, epimastigotes were cultured and distributed in 96-well plates at a density of 10^6 cells/mL in liver infusion tryptose medium supplemented with 10% fetal bovine serum (FBS) and 1% antibiotic. Then, the cells were treated with piplartine analogues at different concentrations and incubated at 28 °C for 24 h. To quantify the growth inhibition of the parasites, a Neubauer chamber was used, and the IC50 was defined.

Data set [3] concerns trypomastigote forms of T. cruzi, Y strain. The data set is described as follows: Trypanocidal activity on trypomastigote forms (viability by counting). The format is cell-based, Trypanosoma cruzi. As to conditions: for IC50: Trypanosoma cruzi, Y strain, 24 h; for Selectivity Index (SI) Trypomastigote: ratio CC50 (LLC-MK2) / IC50 trypomastigote. The protocol: as §1
Trypomastigote forms were obtained by infecting LLC-MK2 cells with the parasite; in this way, the cells were incubated for 24 h in T-25/75 cm^2 flasks at 37 °C in an atmosphere with 5% CO2 in DMEM medium supplemented with 2% FBS and 1% antibiotic. Subsequently, the trypomastigote forms were distributed in 96-well plates treated with piplartine analogues at different concentrations (200; 100; 50; 25; 12.5; 6.25; 3.12 μg/mL) and incubated at 37 °C for 24 h. The assessment of cell viability was performed by counting, and the IC50 was defined.

The test system of data set [4] is epimastigote forms of T. cruzi. Further details: method as in doi:10.1007/s00044-008-9161-9. As to conditions: read-out: IC50 growth of epimastigote forms; cited from earlier work.
A short description of data set [5]: In vitro cytotoxicity, MTT assay. The format is cell-based, Rhesus monkey. As to conditions: Rhesus monkey, MTT, 24 h, read-out: LLCK-MK2 CC50. The procedure:
The compounds were considered selective for the parasite when SI ≥ 10 [21]. The results are expressed in Table 2.
For the cytotoxicity analysis, the (3-[4,5-dimethylthiazol-2-yl]-2,5 diphenyl tetrazolium bromide) (MTT) assay was used, in which the LLC-MK2 cells were cultured in Dulbecco’s Modified Eagle Medium (DMEM), then exposed to the piplartine analogues at different concentrations (25–200 μg/mL) and incubated for 24 h at 37 °C. Then MTT was added, and the cells were incubated for 4 h, after which 10% sodium dodecyl sulfate was added. […] To calculate the relative cell viability, cells treated only with sterile phosphate-buffered saline were used as a negative control. The experiments were conducted in triplicates.
(In general: Tetrazolium assays rely on reduction of a dye to a coloured formazan, in cell work by metabolically active cells.)

Data set [6] relates to amastigote form of the parasite. Further details: method as in PMID 25880257. As to conditions: cited from earlier work.
The subject of data set [7] is epimastigote form of T. cruzi. More on the design: method as in PMID 31775321. As to conditions: cited from earlier work.

“And” between values parts separate entries of the source, which are not always exact repeats. Equal values may be shown once. Read-outs that look alike come from different tables or passages of the source.

For the molecule `COc1cc(C=CC(=O)O)cc(OC)c1OC` [3,4,5-trimethoxycinnamic acid], in data set [1], the bioavailability result was “high bioavailability” and the oral absorption result is “rapid oral absorption”.
As a reminder, the IC50 is the concentration needed to halve the response being measured. With `O=C(Cn1ccnc1[N+](=O)[O-])NCc1ccccc1` [Benznidazole, reference compound], the IC50 in data set [2] (Y strain, 24 h) is 23 µg/mL and 115 µM; in data set [3] it was 32.3 µg/mL and 161 µM; in data set [4], 42.7 µM.
For orientation: CC50 means the concentration giving 50% cytotoxicity. As for `COC(=O)/C=C/c1cc(OC)c(OC)c(OC)c1` [Compound 1, (E)-Methyl 3-(3,4,5-trimethoxyphenyl)acrylate], the IC50 in data set [2] (Y strain, 24 h) was 31.5 µg/mL and 125 µM. For the same molecule, in data set [2], the “Selectivity Index (SI) Epimastigote” value turned out to be 4.01. For the same molecule, the CC50 at 24 h in data set [5] was 126 µg/mL and 501 µM.
Consider `CCOC(=O)/C=C/c1cc(OC)c(OC)c(OC)c1` [Compound 2], for which the IC50 in data set [2] (Y strain, 24 h) is 85.7 µg/mL and 322 µM. The “Selectivity Index (SI) Epimastigote” value in data set [2] is more than 2.3. Moreover, in data set [5], the 50% cytotoxic concentration (CC50) at 24 h was > 200 µg/mL and > 751 µM.
On to `CCCOC(=O)/C=C/c1cc(OC)c(OC)c(OC)c1` [Compound 3], for which the IC50 in data set [2] (Y strain, 24 h) is 90.1 µg/mL and 321 µM. Moreover, in data set [2], the “Selectivity Index (SI) Epimastigote” value turned out to be 1.6. Moreover, the half-maximal cytotoxic concentration (CC50) at 24 h in data set [5] was 148 µg/mL and 526 µM.
Turning to `COc1cc(/C=C/C(=O)OC(C)C)cc(OC)c1OC` [Compound 4], the IC50 in data set [2] (Y strain, 24 h) was 74.5 µg/mL and 266 µM. The “Selectivity Index (SI) Epimastigote” value in data set [2] was more than 2.7. For the same molecule, the CC50 at 24 h in data set [5] was > 200 µg/mL and > 714 µM.
`CCCCCOC(=O)/C=C/c1cc(OC)c(OC)c(OC)c1` [Compound 5]: the IC50 in data set [2] (Y strain, 24 h) was 20.2 µg/mL and 65.5 µM. For the same molecule, the “Selectivity Index (SI) Epimastigote” value in data set [2] was more than 9.9. Besides, the cytotoxic concentration (CC50) at 24 h in data set [5] was > 200 µg/mL and > 649 µM.
For the molecule `CCCCCCCCCCOC(=O)/C=C/c1cc(OC)c(OC)c(OC)c1` [Compound 6], in data set [2] (Y strain), the “trypanocidal activity against epimastigote form (in words)” value is given as “suppressed the trypanocidal activity”. Further, the “Epimastigote IC50” value in data set [2] (Y strain, 24 h) is “n*”. Besides, in data set [5], the CC50 at 24 h is > 200 µg/mL and > 528 µM.
Regarding `COc1ccc(COC(=O)/C=C/c2cc(OC)c(OC)c(OC)c2)cc1` [Compound 7], in data set [2] (Y strain, 24 h), the half-maximal inhibitory concentration (IC50) was 56.4 µg/mL and 157 µM. The “Selectivity Index (SI) Epimastigote” value in data set [2] turned out to be 3.5. The CC50 at 24 h in data set [5] (LLC-MK2 renal epithelial cells) was 196 µg/mL and 547 µM.
On to `COc1cccc(COC(=O)/C=C/c2cc(OC)c(OC)c(OC)c2)c1` [Compound 8], for which the IC50 in data set [2] (Y strain, 24 h) was 40.3 µg/mL and 112 µM. In data set [2], the “Selectivity Index (SI) Epimastigote” value is on record as 2.5. Besides, in data set [3], the IC50 is 64.4 µg/mL and 180 µM; the “Selectivity Index (SI) Trypomastigote” value amounted to 1.6. For the same molecule, in data set [5] (LLC-MK2 renal epithelial cells), the cytotoxic concentration (CC50) at 24 h is 100 µg/mL and 280 µM.
For `COc1cc(/C=C/C(=O)OCc2ccc(C)cc2)cc(OC)c1OC` [Compound 9], the IC50 in data set [2] (Y strain, 24 h) is 61.8 µg/mL and 180 µM. In addition, the “Selectivity Index (SI) Epimastigote” value in data set [2] is reported as 3.0. Also, in data set [3], the concentration for half-maximal inhibition (IC50) is 39.9 µg/mL and 123 µM; the “Selectivity Index (SI) Trypomastigote” value is given as 4.6. In addition, in data set [5] (LLC-MK2 renal epithelial cells), the CC50 at 24 h is 183 µg/mL and 534 µM.
With `COc1cc(/C=C/C(=O)OCc2ccccc2)cc(OC)c1OC` [Compound 10], the IC50 in data set [2] (Y strain, 24 h) was 40 µg/mL and 122 µM; in data set [3], 13.4 µg/mL and 40.8 µM. Also, the “Selectivity Index (SI) Epimastigote” value in data set [2] was determined as 4.6. The “Selectivity Index (SI) Trypomastigote” value in data set [3] stood at 13.7. The CC50 at 24 h in data set [5] (LLC-MK2 renal epithelial cells) is 183 µg/mL and 557 µM.
Take `C=C(C)[C@@H]1CC=C(COC(=O)/C=C/c2cc(OC)c(OC)c(OC)c2)CC1` [Compound 12]: the 50% inhibitory concentration (IC50) in data set [2] (Y strain, 24 h) is 70.1 µg/mL and 188 µM. Besides, the “Selectivity Index (SI) Epimastigote” value in data set [2] came to 1.5. In data set [3], the IC50 was 38.7 µg/mL and 104 µM; the “Selectivity Index (SI) Trypomastigote” value was 2.7. The CC50 at 24 h in data set [5] (LLC-MK2 renal epithelial cells) was 106 µg/mL and 284 µM.
In the case of `COc1cc(C=CC(=O)OC2CC3CCC2(C)C3(C)C)cc(OC)c1OC` (stereo not shown) [Compound 13], the IC50 in data set [2] (Y strain, 24 h) was 155 µg/mL and 414 µM. The “Selectivity Index (SI) Epimastigote” value in data set [2] came out at 0.5. For the same molecule, in data set [5] (LLC-MK2 renal epithelial cells), the CC50 at 24 h was 71.2 µg/mL and 190 µM.
For `CCOC(=O)/C=C/c1ccc(O)c(O)c1` [ethyl caffeate], the IC50 in data set [6] was 18.3 µM.
For `COC(=O)/C=C/c1ccc(O)cc1` [methyl p-coumarate], the concentration for half-maximal inhibition (IC50) in data set [7] was 601 µM.
As for `COc1cc(/C=C/C(=O)N2CCC=CC2=O)cc(OC)c1OC` [piplartine], the IC50 in data set [4] was 21 µM.

The values are drawn from PMC10254306, “Piplartine-Inspired 3,4,5-Trimethoxycinnamates: Trypanocidal, Mechanism of Action, and In Silico Evaluation” (Molecules, 2023).
